Test results published in patent publication US9518038B2, “Condensation product of theanine derivative and carboxylic acid coumarin derivative, its intermediate, preparation method and use thereof” (SHANDONG YINGDONG YINGHAO BIOTECHNOLOGY, INC., priority 2012, dated 2016).
pIC50: −log10 of the molar value.

Columns and labels:
[1] = system: human breast cancer cells MCF-7; experiment: MTT growth inhibition, MCF-7 cells; format: cell-based; details: MCF7, 72 h after treatment, read-out: Drug concentration (IC50) at which 50% cancer cells survived
[2] = system: human breast cancer cells MDA-MB-231; experiment: MTT growth inhibition, MDA-MB-231 cells; format: cell-based; details: 72 h after treatment, read-out: Drug concentration (IC50) at which 50% cancer cells survived
[3] = system: human liver cancer cells SMMC7721; experiment: MTT growth inhibition, SMMC7721 cells; format: cell-based; details: SMMC-7721, S-7721 (SMMC7721), 72 h after treatment, read-out: Drug concentration (IC50) at which 50% cancer cells survived
[4] = system: human chronic leukemia cells K562; experiment: MTT growth inhibition, K562 cells; format: cell-based; details: 72 h after treatment, read-out: Drug concentration (IC50) at which 50% cancer cells survived
[5] = system: Caski human cervical cancer cells; experiment: MTT growth inhibition, Caski cells; format: cell-based; details: Ca-Ski, 72 h after treatment, read-out: Drug concentration (IC50) at which 50% cancer cells survived
[6] = system: human lung cancer cells A549 xenograft; experiment: In-vivo growth of A549 xenografts in nude mice; set-up: species or system BALB/c nude mice; details: Mus musculus, ip, vs DMSO solvent control, read-out: Curative effect (inhibition rate %) of tumor weight; for inhibition in vivo at 60 mg/kg: 60 mg/kg intraperitoneal once a day; for inhibition in vivo at 90 mg/kg: 90 mg/kg intraperitoneal once a day
Experimental: (§1) RPMI1640 and DMEM culture solutions: Hyclone Company; inactivated fetal bovine serum: Hyclone Company, preserved at −20° C.; trypsin: Amersco Company; and 0.4% trypan blue: Sigma Company;
(§2) (3) Observation of growth of tumors in nude mice: the activities (including food intake, traits of urine and stool, mental state and the like) of the nude mice and the tumor growth time and growth situation of the transplanted tumors were observed every day, the body weight and the size of the tumors were measured once every 2-3 days. The long diameter a and the short diameter b (mm) of each tumor were measured by a vernier caliper to calculate the volume, wherein the volume V=π1/2·ab^2 (mm^3);
(§3) (4) sacrifice of animals: the mice were anesthetized and photoed after treatment experiments; the nude mice were sacrificed by breaking neck, the tumor tissues were stripped under sterile conditions and the weight of the tumors was weighed; and the effects of the drugs on pathology and toxicity of the various organs and tissues were detected.

[7] = system: human breast cancer cells MCF-7 xenograft; experiment: In-vivo growth of MCF-7 xenografts in nude mice; set-up: species or system BALB/c nude mice; details: Mus musculus, MCF7, ip, vs DMSO solvent control, read-out: Curative effect (inhibition rate %) of tumor weight; for inhibition in vivo at 60 mg/kg: 60 mg/kg intraperitoneal once a day; for inhibition in vivo at 90 mg/kg: 90 mg/kg intraperitoneal once a day
Experimental: as §1, §2, §3

[8] = system: Lewis lung cancer (highly metastatic mouse lung cancer) cells; experiment: Mouse Lewis lung cancer metastasis model; format: in vivo, C57/BL6J black mice; details: Lewis lung carcinoma, ip, LLC, vs DMSO solvent control, read-out: tumor lung metastasis inhibition rate % of mouse Lewis lung cancer; for inhibition in vivo at 60 mg/kg: 60 mg/kg intraperitoneal once a day; for inhibition in vivo at 90 mg/kg: 90 mg/kg intraperitoneal once a day
Experimental: as §1, §3

Bcl-2/Bax = experiment: Western Blotting, Bcl-2/Bax level; format: cell-based; details: human liver cancer cells, Lewis lung cancer cells and other cancer cell lines and tumor tissues, read-out: Effective concentration (IC50) for inhibition of Bcl-2/Bax
Excerpt: (§4) Antibodies: primary antibodies of VEGFR, EGFR, c-Met, K-Ras, H-Ras, Akt, NF-κB, Cyclin D1, ER-alpha, Dvl-1, Dvl-2, Dvl-3, MMP-9, MMP2, β-catenin, Bcl-2, Bax, p53, p21, E-cadherin and Caspase3 protein, purchased from American Cell Signaling Technology Company and Santa Cruz Technology Company; and H3 acetylation, H4 acetylation and HDAC (HDAC3, HDAC4 and the like) Antibody Sample Kits, purchased from Cell Signaling Technology Company of the U.S.
(§5) (3) polyacrylamide gel electrophoresis (SDS-PAGE): an equal amount of protein lysate sample was used to separate protein, film transfer, and blocking, treated with appropriate primary antibodies and secondary antibodies in sequence, and the film was washed, then the color was developed with ECL kit, and a blot protein band was detected by exposure of an X-ray film; and a Gel-Pro Analyzer was used for quantitative analysis of gray degree, optical density value of the control group and the drug treatment group in various concentration were respectively compared with that of internal reference, the obtained ratios were respectively compared with the control group, and the protein expression level was semi-quantified.

Nuclear β-catenin = experiment: Western Blotting, nuclear β-catenin level; format: cell-based; details: human liver cancer cells, Lewis lung cancer cells and other cancer cell lines and tumor tissues, read-out: Effective concentration (IC50) for inhibition of Nuclear β-catenin
Excerpt: as §4, §5

c-Met = experiment: Western Blotting, c-Met level; format: cell-based; details: human liver cancer cells, Lewis lung cancer cells and other cancer cell lines and tumor tissues, read-out: Effective concentration (IC50) for inhibition of c-Met
Excerpt: as §4, §5

Row | Compound | pIC50 [1] | pIC50 [2] | pIC50 [3] | pIC50 [4] | pIC50 [5] | inhibition in vivo at 60 mg/kg [6] | inhibition in vivo at 90 mg/kg [6] | inhibition in vivo at 60 mg/kg [7] | inhibition in vivo at 90 mg/kg [7] | inhibition in vivo at 60 mg/kg [8] | inhibition in vivo at 90 mg/kg [8] | pIC50 (Bcl-2/Bax) | pIC50 (Nuclear β-catenin) | pIC50 (c-Met)
1 | CCNC(=O)CC[C@@H](NC(=O)c1cc2cc(Br)cc(Br)c2oc1=O)C(=O)OCC [Compound Ih, (R)-2-(6,8-dibromo-2-oxo-2H-benzopyran-3-carboxamido)-5-ethylamino-5-oxo-pentanoic ethyl ester] | 4.04 | 4.01 | 4.07 | 4.10 | 4.28 | 53.8% | 63.8% | 58.9% | 75.9% | 77.9% | 80.7% | > 4.15 | > 4.00 | > 3.30
2 | CCNC(=O)CC[C@@H](NC(=O)c1cc2cc(Cl)cc(Cl)c2oc1=O)C(=O)OCC [Compound Ig, (R)-2-(6,8-dichloro-2-oxo-2H-benzopyran-3-carboxamido)-5-ethylamino-5-oxo-pentanoic ethyl ester] | 4.12 | 4.04 | 4.11 | 4.24 | 4.44 | 56.6% | 66.6% | 65.7% | 76.9% | 75.5% | 79.9% | > 4.15 | > 4.00 | > 3.82
